From patent publication US9610367B2, “Particle and contrast agent having the particle” (CANON KABUSHIKI KAISHA, priority 2010, dated 2017)

Key:
Type in all cases: physicochemical
[1] = dissolution of ICG in chloroform with lipids without a positively charged region; conditions: lipid without positively charged region used instead of DOPE
Source text: Instead of DOPE of Example 1, lipids (chemical formula 8, tristearin; chemical formula 9, triolein; chemical formula 10, ethyl stearate; chemical formula 11, β-carotene; and chemical formula 12, cholesterol acetate) without a positively charged region represented by the following chemical formulas 8 to 12 were used to prepare an ICG composition in the same manner as in Example 1. However, ICG was not dissolved in chloroform in any case, and a target polymer nanoparticle containing ICG could not be obtained.

[2] = stability of aqueous dispersion: absorbance at λmax over time at 4° C. in a dark place; conditions: at 48 hours; ICG dissolved in water
Experimental: To evaluate the stability of polymer nanoparticles, aqueous dispersions of PNP1 and PNP2 were allowed to stand at 4° C. in a dark place, and changes in the absorbance at λmax were measured over time. The results are illustrated in FIGS. 5 and 6. As a comparative example, changes with time in the absorbance at λmax of NPL 1 and in an ICG solution are illustrated in FIG. 5.
Changes in the absorbance of the aqueous dispersions of PNP4 to PNP6 at λmax were measured over time in the same manner as in Example 9. The results are illustrated in FIGS. 7 and 8. As a comparative example, changes with time in the absorbance at λmax of NPL 1 and in an ICG solution are illustrated in FIG. 7.
The PNP10 prepared in Example 13 was diluted with water, and the absorbance was measured over time with an absorption spectrometer (Perkin Elmer). The dispersion was shielded from a light except when measurement was performed and stored at 4° C. The measurement results are illustrated in FIG. 9.

[3] = solubility of ICG in dichloromethane when phospholipid was added; conditions: phospholipid not added; inferred from absorption curve integral values
Experimental: 2 molar equivalents of a phospholipid was added to 5.5 mg of ICG. As the phospholipid, DSPC or DOPE was used. Each of these ICG-phospholipid mixtures was dissolved in 2 mL of dichloromethane. Controls were prepared by dissolving in ICG in methanol or dichloromethane. All these ICG solutions were filtered with a filter having a pore size of 0.2 μm and then diluted 500-fold with dichloromethane.

| Compound | dissolution of ICG in chloroform [1] | absorbance change rate at λmax [2] [%] | ICG dissolved in dichloromethane [3] |
| --- | --- | --- | --- |
| CCCCCCCCCCCCCCCCCC(=O)OCC(COC(=O)CCCCCCCCCCCCCCCCC)OC(=O)CCCCCCCCCCCCCCCCC [tristearin] | not dissolved | – | – |
| CCCCCCCC/C=C\CCCCCCCC(=O)OCC(COC(=O)CCCCCCC/C=C\CCCCCCCC)OC(=O)CCCCCCC/C=C\CCCCCCCC [triolein] | not dissolved | – | – |
| CC(=O)O[C@H]1CC[C@@]2(C)C(=CC[C@H]3[C@@H]4CC[C@H]([C@H](C)CCCC(C)C)[C@@]4(C)CC[C@@H]32)C1 [cholesterol acetate] | not dissolved | – | – |
| indocyanine green [ICG] | – | 70 | approximately 0.6 mM |
| CCCCCCCCCCCCCCCCCC(=O)OCC [ethyl stearate] | not dissolved | – | – |
